Usually Ki stands for the equilibrium dissociation constant of an inhibitor or competing ligand from its target. The AC50 is the concentration giving half of the maximal activity seen. The IC50 is the concentration that inhibits the measured activity by half.

Activity calls are given as the source filed them.

For experiment [1], the target named is Insulin-like growth factor 1 receptor (Homo sapiens, UniProt P08069). The experiment can be described thus: Navigating the Kinome. Panel member name: IGF1R. It counts as functional.
The target of experiment [2] is Protein kinase C theta type (Homo sapiens, UniProt Q04759). The experiment can be described thus: Navigating the Kinome. Panel member name: PRKCQ. It counts as functional.
Experiment [3] addresses Vascular endothelial growth factor receptor 1 (Homo sapiens, UniProt P17948). It counts as functional.
The target of experiment [4] is Platelet-derived growth factor receptor alpha (Homo sapiens, UniProt P16234). The experiment can be described thus: Navigating the Kinome. Panel member name: PDGFRA. The class given is functional.
For the next experiment, the target named is Focal adhesion kinase 1 (Homo sapiens, UniProt Q05397). The class given is functional.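 Also: measured as one member of a kinome panel.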
The target of experiment [5] is Tyrosine-protein kinase Fyn (Homo sapiens, UniProt P06241). It counts as functional.
Experiment [6] deals with High affinity nerve growth factor receptor (Homo sapiens, UniProt P04629). The class given is functional.
Experiment [7] deals with Leukocyte tyrosine kinase receptor (Homo sapiens, UniProt P29376). The experiment can be described thus: Navigating the Kinome. Panel member name: LTK. It counts as functional.
Experiment [8] has as its target Glycogen synthase kinase-3 alpha (Homo sapiens, UniProt P49840). It counts as functional.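 Also: GSK3A result taken from a broad kinome-wide kinase panel.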
For experiment [9], the target named is Tyrosine-protein kinase Lck (Homo sapiens, UniProt P06239). The class given is functional.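 Also: lck was assayed as one member of a kinase panel.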
Experiment [10] concerns the target Rho-associated protein kinase 1 (Homo sapiens, UniProt Q13464). It counts as functional.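 Also: measured within a broad kinome-wide panel profiling many kinases.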
Experiment [11] deals with Fibroblast growth factor receptor 1 (Homo sapiens, UniProt P11362). It counts as functional.
Chain of Fibroblast growth factor receptor 1 (P11362 whole entry): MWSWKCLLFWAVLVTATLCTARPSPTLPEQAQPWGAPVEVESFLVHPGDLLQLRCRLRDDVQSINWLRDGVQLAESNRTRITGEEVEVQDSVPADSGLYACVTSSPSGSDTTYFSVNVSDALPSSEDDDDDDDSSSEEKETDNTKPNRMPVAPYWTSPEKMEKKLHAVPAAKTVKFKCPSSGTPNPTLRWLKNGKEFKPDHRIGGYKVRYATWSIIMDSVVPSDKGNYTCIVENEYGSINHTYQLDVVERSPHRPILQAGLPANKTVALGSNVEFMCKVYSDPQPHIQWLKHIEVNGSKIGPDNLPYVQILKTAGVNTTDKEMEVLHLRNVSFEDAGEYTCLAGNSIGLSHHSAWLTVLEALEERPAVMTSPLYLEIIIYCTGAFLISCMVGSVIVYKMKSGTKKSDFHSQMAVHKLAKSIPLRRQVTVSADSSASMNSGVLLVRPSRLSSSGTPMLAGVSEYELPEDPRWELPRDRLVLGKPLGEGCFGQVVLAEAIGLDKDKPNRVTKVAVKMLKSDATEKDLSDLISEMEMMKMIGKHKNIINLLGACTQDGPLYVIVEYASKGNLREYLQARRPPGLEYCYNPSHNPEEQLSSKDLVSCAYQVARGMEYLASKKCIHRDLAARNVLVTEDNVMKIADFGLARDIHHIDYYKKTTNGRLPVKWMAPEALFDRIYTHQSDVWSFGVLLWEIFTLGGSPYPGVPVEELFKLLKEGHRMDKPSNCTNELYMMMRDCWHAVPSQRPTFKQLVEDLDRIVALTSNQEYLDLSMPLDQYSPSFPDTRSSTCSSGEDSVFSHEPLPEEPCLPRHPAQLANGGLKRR
Experiment [12] has as its target Tyrosine-protein kinase JAK2 (Homo sapiens, UniProt O60674). The class given is functional.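 Also: JAK2 tested as one member of a kinase panel.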
The target in experiment [13] is Dual specificity mitogen-activated protein kinase kinase 2 (Homo sapiens, UniProt P36507). The experiment can be described thus: Navigating the Kinome. Panel member name: MAP2K2. The class given is functional.
For experiment [14], the target named is Dual specificity protein kinase CLK2 (Homo sapiens, UniProt P49760). It counts as functional.
The target in experiment [15] is Cyclin-dependent kinase 5 (Homo sapiens, UniProt Q00535). It counts as functional.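 Also: CDK5 measured as one member of a kinase profiling panel.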
Experiment [16] concerns the target Leucine-rich repeat serine/threonine-protein kinase 2 (Homo sapiens, UniProt Q5S007). The class given is functional.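 Also: value from a broad kinome-wide panel profiling study in which LRRK2 was one of the kinases tested.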
Another experiment has as its target Activin receptor type-1 (Homo sapiens, UniProt Q04771). The experiment can be described thus: Navigating the Kinome. Panel member name: ACVR1. The class given is functional.
The target of experiment [17] is Mitogen-activated protein kinase 9 (Homo sapiens, UniProt P45984). The class given is functional.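 Also: value from a kinome panel profiling assay, MAPK9 panel entry.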
Experiment [18] has as its target Macrophage-stimulating protein receptor (Homo sapiens, UniProt Q04912). The experiment can be described thus: Navigating the Kinome. Panel member name: MST1R. It counts as functional.
Experiment [19] has as its target Hepatocyte growth factor receptor (Homo sapiens, UniProt P08581). It counts as functional.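 Also: kinase panel profiling across the kinome, with MET as the panel member.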
Another experiment addresses LIM domain kinase 1 (Homo sapiens, UniProt P53667). The experiment can be described thus: Navigating the Kinome. Panel member name: LIMK1. It counts as functional.
Experiment [20] deals with Casein kinase I isoform alpha (Homo sapiens, UniProt P48729). The class given is functional.
In experiment [21] the target is Serine/threonine-protein kinase D3 (Homo sapiens, UniProt O94806). It counts as functional.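 Also: determined within a kinase panel screen, with PRKCN as the panel member.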
The target in experiment [22] is Tyrosine-protein kinase receptor TYRO3 (Homo sapiens, UniProt Q06418). It counts as functional.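 Also: TYRO3 value obtained as one member of a kinome-wide profiling panel.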
The target of experiment [23] is Mitogen-activated protein kinase kinase kinase kinase 2 (Homo sapiens, UniProt Q12851). It counts as functional.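 Also: measured as one member of a kinome-wide kinase panel, with MAP4K2 as the panel entry.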
Experiment [24] can be described thus: HepG2 cell cytotoxicity, dose response, cytotoxicity control, set 3 (AID 504853). It counts as functional. The following applies: Mycobacterium tuberculosis.
Experiment [25] in a line: Vero cell cytotoxicity, dose response, cytotoxicity control for M. tuberculosis growth inhibitor project, Vero cells, purified and synthesized compounds, set 4 (AID 504854). The class given is functional. The following applies: Mycobacterium tuberculosis.
Experiment [26] in a line: THP-1 cell cytotoxicity, cytotoxicity control, set 4 (AID 504911). The class given is functional. To be noted: Mycobacterium tuberculosis.
Experiment [27] in a line: Vero cell cytotoxicity, dose response, cytotoxicity control for M. tuberculosis growth inhibitor project, Vero cells, purified and synthesized compounds, set 5 (AID 504909). The class given is functional. The following applies: Mycobacterium tuberculosis.
Experiment [28] is described as follows: microbe, parasite or virus in culture. It counts as functional. To be noted: Mycobacterium tuberculosis.
A further experiment concerns the target CAAX prenyl protease 1 (Saccharomyces cerevisiae S288c, UniProt P47154). The experiment can be described thus: yeast CAAX protease Ste24 inhibition – biochemical, S. cerevisiae, plate reader, cherry-pick, dose response (AID 488815).
Experiment [29] can be described thus: Vero cell cytotoxicity, cytotoxicity control for M. tuberculosis inhibitor project, purified and synthesized samples, set 3 (AID 504684). The class given is functional. To be noted: […].
Experiment [30] can be described thus: THP-1 cell cytotoxicity, dose response, cytotoxicity control, set 3 (AID 504852). It counts as functional. The following applies: Mycobacterium tuberculosis.
The nature of experiment [31]: A Cell Based Secondary Assay to Explore Cytotoxicity in HepG2 Cells of Compounds that Modulate Mycobacterium tuberculosis in Media Containing Glycerol versus Media without Glycerol (2). It counts as functional.
Experiment [32] in a line: A Cell Based Secondary Assay to Explore Cytotoxicity in THP-1 Cells of Compounds that Modulate Mycobacterium tuberculosis in Media Containing Glycerol versus Media without Glycerol (2). The class given is functional.
The target of another experiment is T1, CAAX prenyl protease 2 (Homo sapiens, UniProt Q9Y256).
T1 sequence (Q9Y256 whole entry): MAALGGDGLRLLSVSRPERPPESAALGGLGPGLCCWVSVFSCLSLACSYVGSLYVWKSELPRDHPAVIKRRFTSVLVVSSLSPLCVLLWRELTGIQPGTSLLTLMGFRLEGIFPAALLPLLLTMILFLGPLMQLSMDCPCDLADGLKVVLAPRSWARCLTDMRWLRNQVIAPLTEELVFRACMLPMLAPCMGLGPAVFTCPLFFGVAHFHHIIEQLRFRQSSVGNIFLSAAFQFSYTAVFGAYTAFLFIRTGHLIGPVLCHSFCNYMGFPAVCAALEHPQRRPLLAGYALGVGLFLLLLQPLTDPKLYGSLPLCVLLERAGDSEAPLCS
The experiment can be described thus: inhibition of Ras-converting CAAX protease Rce1 – biochemical, yeast membranes, quenched-peptide fluorescence, cherry-pick, dose response (AID 588849).

For experiment [33], the target named is T2, Neuropeptides B/W receptor type 1 (Homo sapiens, UniProt P48145).
T2 sequence (P48145 whole entry): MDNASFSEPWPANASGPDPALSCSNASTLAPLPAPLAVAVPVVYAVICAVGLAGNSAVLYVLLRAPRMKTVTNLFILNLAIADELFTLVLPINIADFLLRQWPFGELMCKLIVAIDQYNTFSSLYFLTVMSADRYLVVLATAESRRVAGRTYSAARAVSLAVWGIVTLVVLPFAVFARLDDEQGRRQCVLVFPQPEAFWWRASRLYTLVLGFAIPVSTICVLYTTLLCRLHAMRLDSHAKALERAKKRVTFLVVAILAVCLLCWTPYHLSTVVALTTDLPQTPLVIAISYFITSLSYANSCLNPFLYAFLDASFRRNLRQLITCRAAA
The experiment can be described thus: human NPBW1 receptor blockade, IC50 – cell-based, fluorescence, dose response, set 6, late-stage follow-up (AID 588583). It counts as functional.

Experiment [34] addresses Melanin-concentrating hormone receptor 1 (Homo sapiens, UniProt Q99705). The experiment can be described thus: Late-stage fluorescence-based counterscreen for antagonists of the G-protein coupled receptor 7 (GPR7): cell-based dose response assay to identify antagonists of the melanin-concentrating hormone receptor 1 (MCHR1) Set 6. The class given is functional. (In general: A counterscreen serves to expose hits that act by an unwanted route or on another target.)

Chain of Leucine-rich repeat serine/threonine-protein kinase 2 (Q5S007 whole entry): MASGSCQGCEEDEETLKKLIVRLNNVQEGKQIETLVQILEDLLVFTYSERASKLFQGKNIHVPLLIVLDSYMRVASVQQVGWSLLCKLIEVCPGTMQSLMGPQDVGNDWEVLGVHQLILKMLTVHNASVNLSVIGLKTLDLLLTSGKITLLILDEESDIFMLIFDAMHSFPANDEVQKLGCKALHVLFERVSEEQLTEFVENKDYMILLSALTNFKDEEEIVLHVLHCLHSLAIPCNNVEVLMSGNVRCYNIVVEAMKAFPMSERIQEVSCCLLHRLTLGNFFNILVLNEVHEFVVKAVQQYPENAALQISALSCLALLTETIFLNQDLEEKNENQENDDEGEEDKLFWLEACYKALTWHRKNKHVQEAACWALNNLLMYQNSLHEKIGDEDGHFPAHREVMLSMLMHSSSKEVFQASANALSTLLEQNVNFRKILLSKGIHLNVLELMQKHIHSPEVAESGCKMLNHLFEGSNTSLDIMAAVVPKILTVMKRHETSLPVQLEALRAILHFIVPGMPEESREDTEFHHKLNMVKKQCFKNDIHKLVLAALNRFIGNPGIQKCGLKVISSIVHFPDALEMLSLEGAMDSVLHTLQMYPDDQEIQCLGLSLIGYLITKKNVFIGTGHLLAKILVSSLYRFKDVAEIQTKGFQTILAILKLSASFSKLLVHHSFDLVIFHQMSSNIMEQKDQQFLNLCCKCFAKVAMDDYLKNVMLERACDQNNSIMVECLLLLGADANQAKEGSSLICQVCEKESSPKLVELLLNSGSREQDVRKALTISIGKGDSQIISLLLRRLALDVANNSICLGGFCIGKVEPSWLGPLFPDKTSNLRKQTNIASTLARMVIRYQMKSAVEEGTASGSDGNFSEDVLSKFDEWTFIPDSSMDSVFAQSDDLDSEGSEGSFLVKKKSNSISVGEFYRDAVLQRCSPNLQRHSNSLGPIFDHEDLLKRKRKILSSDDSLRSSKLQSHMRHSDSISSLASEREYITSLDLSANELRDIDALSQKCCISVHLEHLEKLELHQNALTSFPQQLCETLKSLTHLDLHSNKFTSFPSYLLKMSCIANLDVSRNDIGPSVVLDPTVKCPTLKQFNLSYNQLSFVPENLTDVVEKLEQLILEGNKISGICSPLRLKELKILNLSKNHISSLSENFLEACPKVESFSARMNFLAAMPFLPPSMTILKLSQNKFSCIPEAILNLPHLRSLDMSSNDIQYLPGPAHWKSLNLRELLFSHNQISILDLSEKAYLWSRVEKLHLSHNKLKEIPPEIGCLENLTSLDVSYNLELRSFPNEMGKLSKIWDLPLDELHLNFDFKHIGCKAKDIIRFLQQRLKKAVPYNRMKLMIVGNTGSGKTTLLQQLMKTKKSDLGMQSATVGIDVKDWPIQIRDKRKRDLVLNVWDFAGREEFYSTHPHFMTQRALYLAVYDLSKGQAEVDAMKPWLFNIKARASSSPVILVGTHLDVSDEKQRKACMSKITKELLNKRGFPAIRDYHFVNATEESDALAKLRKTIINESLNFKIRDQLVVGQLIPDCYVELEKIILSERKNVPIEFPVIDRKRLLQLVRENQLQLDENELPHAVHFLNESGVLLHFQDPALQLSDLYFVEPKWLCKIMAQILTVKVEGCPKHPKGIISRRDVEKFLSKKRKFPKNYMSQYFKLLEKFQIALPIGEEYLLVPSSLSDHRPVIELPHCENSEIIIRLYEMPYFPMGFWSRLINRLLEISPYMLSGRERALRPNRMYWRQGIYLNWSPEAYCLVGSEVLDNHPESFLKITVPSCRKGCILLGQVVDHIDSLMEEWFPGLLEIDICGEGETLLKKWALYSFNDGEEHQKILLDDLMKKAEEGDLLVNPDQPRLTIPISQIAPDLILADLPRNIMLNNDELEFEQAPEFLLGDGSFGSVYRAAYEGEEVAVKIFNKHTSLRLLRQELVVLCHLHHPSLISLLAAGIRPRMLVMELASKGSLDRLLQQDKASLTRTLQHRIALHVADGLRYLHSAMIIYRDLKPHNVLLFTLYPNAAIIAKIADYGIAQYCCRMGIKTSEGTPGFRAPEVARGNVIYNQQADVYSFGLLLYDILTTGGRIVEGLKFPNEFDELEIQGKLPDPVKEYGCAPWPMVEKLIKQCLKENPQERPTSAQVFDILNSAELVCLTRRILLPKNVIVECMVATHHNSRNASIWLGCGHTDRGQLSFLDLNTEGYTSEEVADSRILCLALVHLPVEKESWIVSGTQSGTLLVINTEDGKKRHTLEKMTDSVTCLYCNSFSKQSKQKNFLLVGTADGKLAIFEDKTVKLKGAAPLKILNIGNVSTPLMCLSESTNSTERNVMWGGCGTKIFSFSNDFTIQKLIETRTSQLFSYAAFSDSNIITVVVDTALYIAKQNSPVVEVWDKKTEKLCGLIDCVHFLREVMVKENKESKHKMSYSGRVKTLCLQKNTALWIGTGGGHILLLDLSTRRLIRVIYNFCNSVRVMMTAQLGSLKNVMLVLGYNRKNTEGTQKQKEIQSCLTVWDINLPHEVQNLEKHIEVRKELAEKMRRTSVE
Chain of Vascular endothelial growth factor receptor 1 (P17948 whole entry): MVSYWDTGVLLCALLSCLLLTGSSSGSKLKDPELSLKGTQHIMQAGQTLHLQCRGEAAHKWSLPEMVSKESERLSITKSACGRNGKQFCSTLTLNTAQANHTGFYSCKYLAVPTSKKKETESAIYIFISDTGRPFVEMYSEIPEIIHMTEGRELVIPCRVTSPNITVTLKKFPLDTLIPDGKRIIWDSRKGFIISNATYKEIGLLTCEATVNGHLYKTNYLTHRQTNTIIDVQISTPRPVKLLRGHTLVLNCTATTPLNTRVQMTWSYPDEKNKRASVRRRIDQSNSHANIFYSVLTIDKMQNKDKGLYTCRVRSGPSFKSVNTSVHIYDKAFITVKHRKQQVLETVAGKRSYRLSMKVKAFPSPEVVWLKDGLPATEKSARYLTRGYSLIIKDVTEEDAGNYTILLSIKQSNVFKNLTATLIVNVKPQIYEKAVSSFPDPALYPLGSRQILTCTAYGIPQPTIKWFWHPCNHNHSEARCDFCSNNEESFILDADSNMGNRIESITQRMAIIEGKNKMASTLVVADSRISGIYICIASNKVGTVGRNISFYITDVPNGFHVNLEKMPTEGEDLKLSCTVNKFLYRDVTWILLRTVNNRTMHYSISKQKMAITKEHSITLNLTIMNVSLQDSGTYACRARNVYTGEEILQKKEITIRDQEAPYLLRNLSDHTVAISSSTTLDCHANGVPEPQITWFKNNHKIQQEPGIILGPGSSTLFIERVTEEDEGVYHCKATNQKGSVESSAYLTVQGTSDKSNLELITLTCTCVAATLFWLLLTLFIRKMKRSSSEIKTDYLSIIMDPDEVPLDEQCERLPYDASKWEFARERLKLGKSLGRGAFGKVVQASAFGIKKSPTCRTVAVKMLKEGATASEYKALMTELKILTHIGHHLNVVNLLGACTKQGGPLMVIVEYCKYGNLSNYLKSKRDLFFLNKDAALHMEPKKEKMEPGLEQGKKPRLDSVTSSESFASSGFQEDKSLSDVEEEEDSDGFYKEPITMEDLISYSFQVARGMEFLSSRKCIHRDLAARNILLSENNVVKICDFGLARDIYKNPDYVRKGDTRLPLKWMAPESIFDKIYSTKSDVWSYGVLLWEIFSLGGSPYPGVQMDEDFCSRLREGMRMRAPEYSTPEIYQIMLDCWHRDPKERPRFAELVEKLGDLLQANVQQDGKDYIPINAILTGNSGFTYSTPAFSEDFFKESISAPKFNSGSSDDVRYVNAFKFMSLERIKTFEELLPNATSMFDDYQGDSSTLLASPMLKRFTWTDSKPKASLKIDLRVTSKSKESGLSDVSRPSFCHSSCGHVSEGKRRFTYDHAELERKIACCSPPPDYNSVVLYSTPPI
Chain of Melanin-concentrating hormone receptor 1 (Q99705 whole entry): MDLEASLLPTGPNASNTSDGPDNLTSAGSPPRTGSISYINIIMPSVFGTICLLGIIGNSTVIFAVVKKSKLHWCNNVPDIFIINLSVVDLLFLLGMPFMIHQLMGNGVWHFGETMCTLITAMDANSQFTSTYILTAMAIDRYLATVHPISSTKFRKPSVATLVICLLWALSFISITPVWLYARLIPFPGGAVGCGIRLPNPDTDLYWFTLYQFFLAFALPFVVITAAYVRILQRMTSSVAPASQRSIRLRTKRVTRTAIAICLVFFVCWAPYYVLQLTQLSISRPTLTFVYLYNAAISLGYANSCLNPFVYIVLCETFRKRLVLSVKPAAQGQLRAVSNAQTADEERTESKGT

For `Nc1ncnc2c1c(-c1cnc3[nH]ccc3c1)nn2C1CCCC1`, the Ki was 398 nM (active) in [1]; 501 nM (active) in [2]; 63.1 nM (active) in [3]; 316 nM (active) in [4]; 1260 nM (active) on Focal adhesion kinase 1; 79.4 nM (active) in experiment [5]. For the same molecule, the Ki in [6] was > 3160 nM (inactive); in [7], 158 nM (active); in experiment [8], 2000 nM (active); in experiment [9], 158 nM (active); in experiment [10], 200 nM (active); in [11] it was 100 nM (active). Besides, the Ki was 1000 nM (active) in experiment [12]; 1000 nM (active) in [13]; 1000 nM (active) in experiment [14]; 1260 nM (active) in [15]; 63.1 nM (active) in experiment [16]; 63.1 nM (active) on Activin receptor type-1. For the same molecule, the Ki in experiment [17] is 1260 nM (active); in [18] it was 126 nM (active); in experiment [19], > 2510 nM (inactive); on LIM domain kinase 1 it was 158 nM (active); in [20], 39.8 nM (active); in experiment [21] it was 251 nM (active). Also, the figures for the Ki in experiment [22] and in experiment [23] were 794 nM (active) and 316 nM (active), respectively.
For the molecule `Cc1cc(Br)ccc1NC(=O)c1cnc(N2CCN(c3ccccn3)CC2)c2ccccc12`, the CC50 in [24] was > 50000 nM (active); in [25], 82000 nM (active); in experiment [26] it was 13200 nM (active); in experiment [27], > 100000 nM (active); in experiment [28] it was > 40000 nM (active); in [29], 46300 nM (active). For the same molecule, the results for the CC50 in experiment [30], in experiment [31] and in [32] were 39800 nM (active), > 50000 nM (active) and 86000 nM (active), respectively. The AC50 is 7540 nM (active) on CAAX prenyl protease 1 and 8930 nM (active) on CAAX prenyl protease 2.
As for `N#Cc1cccc(C(C#N)c2c(Br)cnn(Cc3cccc4ccccc34)c2=O)c1` (centres undefined), the IC50 in [33] and in [34] was ~693 nM (active) throughout.

The values above are taken from ChEMBL document CHEMBL1201862, “PubChem BioAssay data set” (2004).
